Consider 1 molecule from US20220408777A1, “FOOD COMPOSITION FOR PREVENTING AND AM[…] […] NONI AND METHOD FOR PREPARING SAME” (NSTBIO. CO., LTD., priority 2020, published 2022).

Counter-ions that a name gives are not always drawn.

Test [1] relates to C57BL/KsJ db/db diabetic mice. As to the kind of experiment: Measurement of fasting blood glucose (in vivo efficacy test for blood glucose lowering). To be noted: oral once a day, Noni 100 mg/kg, Metformin 200 mg/kg. As to the method: (§1) An administration sample administered to a diabetic model positive control was a Metformin Tab (metformin hydrochloride, JRP), which is a diabetic drug. A dose was 200 mg/kg body weight of a mouse (denoted as Metformin 200 mg/kg).
(§2) An administration sample administered to a diabetic model fermented noni group was a food composition containing the fermented noni obtained in Example 1. A dose was 100 mg/kg body weight of a mouse (denoted as Noni 100 mg/kg).
(§3) As for the administration method, each administration sample was dissolved in 0.5% carboxymethyl cellulose (CMC) for each dose and orally administered once a day for 6 weeks.
The fasting blood glucose of the experimental animals was measured once a week for 6 weeks using a glucometer. Fasting blood glucose was measured at 1-week (7-day) intervals for 6 weeks (42 days) for each experimental group.

Test [2] deals with C57BL/KsJ db/db diabetic mice. As to the kind of experiment: Oral glucose tolerance test (OGTT). In kind it is in vivo. To be noted: db/db mice after 6 weeks oral administration, Noni 100 mg/kg, Metformin 200 mg/kg; for blood glucose decreased (OGTT): glucose 3.0 g/kg oral. As to the method:
as §1, §2, §3
After the completion of oral administration for 6 weeks, an oral glucose tolerance test (OGTT) was performed.
After experimental animals were fasted for 12 hours, fasting blood glucose was measured by collecting blood from the tail vein, and then a 50% glucose solution (3.0 g/kg of B.W) was orally administered to all groups, and after 30 minutes, 60 minutes, 120 minutes and 180 minutes, blood glucose was measured using a glucometer.

Take `CN(C)C(=N)N=C(N)N` [Metformin, metformin hydrochloride]: the “decrease in fasting blood glucose” value in test [1] (after 6 weeks) was determined as 34%. Further, the fasting blood glucose entry in test [1] (for 1 to 6 weeks, FIG. 2) is on record as “consistently low”. In addition, the “AUC value decreased (OGTT area under curve)” value in test [2] (compared to db/db control, FIG. 4) is 23.3%. Further, the “blood glucose decreased (OGTT)” value in test [2] (at 2 hr, compared to db/db control) is reported as 22.9%; in test [2] (at 3 hr, compared to db/db control) it was 28.5%; in test [2] (from 1 hr, compared to blood glucose increased at 0.5 hr in db/db control) it was 33.1%.
